From patent US4465673A, “Pentagalloylglucose antiviral composition” (Tanaka; Yasuo, priority 1983, dated 1984) come the findings set out here.

In one series the test system is herpes simplex virus. Briefly: Antiviral activity against herpes simplex virus in FL cells (multinucleated giant cell formation). The format is cell-based. The following applies: FL cell monolayers, sample added 1 h after virus, 36° C., 5% carbon dioxide, 24 hours incubation. How it is done:
Antiviral activity of 1,2,3,4,6-pentagalloylglucose against herpes simplex virus was assayed. Procedure:
Monolayers were prepared from dispersed FL cells in Petri dishes of diameter 35 mm, 24 hours prior to the assay. On carrying out the assay, the medium in each dish was poured off and each dish received 1 ml of medium containing herpes simplex virus. The dishes were incubated at 36° C. in a humidified atmosphere containing 5% of gaseous carbon dioxide. After an hour, each dish further received 1 ml of medium and 20-200 μl of an aqueous 1,2,3,4,6-pentagalloylglucose solution. Incubation was continued for 24 hours and then all the dishes were inspected for multinucleated giant cell. Antiviral activity was defined as the minimum concentration of sample at which no multinucleated giant cell appeared.

The next series is described as follows: Acute toxicity in rats. The settings on record: in a usual manner. The series is classed as in vivo. How it is done: Acute toxicity of 1,2,3,4 6-pentagalloylglucose was assayed using rats in a usual manner.

Take “1,2,3,4,6-pentagalloylglucose [Product of Example 1]”: the “Antiviral activity (minimum concentration of sample at which no multinucleated giant cell appeared)” value in the series on herpes simplex virus stood at 26 µg/mL. Take `O=C(OCC1OC(OC(=O)c2cc(O)c(O)c(O)c2)C(OC(=O)c2cc(O)c(O)c(O)c2)C(OC(=O)c2cc(O)c(O)c(O)c2)C1OC(=O)c1cc(O)c(O)c(O)c1)c1cc(O)c(O)c(O)c1` (stereo not drawn) [1,2,3,4,6-pentagalloylglucose]: the minimal effective concentration with herpes simplex virus (read-out: Antiviral activity (minimum concentration of sample at which no multinucleated giant cell appeared)) was determined as 25 µg/mL. The Acute toxicity result in the series “Acute toxicity in rats” is listed as “extremely low”.
